From ChEMBL document CHEMBL1141740, “Studies on the Synthesis of Elegan-Type Linear Diterpenes: The Efficient Total Syntheses of Eleganolone, Eleganolone Acetate, Elegandiol, Eleganonal, and Epoxyeleganolone” (J Nat Prod, 1998) come the findings set out here.

The IC50 is the point on the concentration scale where inhibition reaches its midpoint.

Holding throughout (assay type): functional, tissue-based
Conditions in all cases: Cavia porcellus

The test system of test [1] is Ileum. Put plainly: Relaxation activity in guinea pig ileum assessed as relaxation of KCl-induced muscle contractions.
Test [2] deals with Ileum. Put plainly: Relaxation activity in guinea pig ileum assessed as inhibition of acetylcholine-induced muscle contractions.
Test [3] has as its system Ileum. Description: Relaxation activity in guinea pig ileum assessed as inhibition of histamine-induced muscle contractions.
Test [4] concerns Ileum. Put plainly: Relaxation activity in guinea pig ileum assessed as relaxation of BaCl2-induced muscle contractions.

Molecules are shown by their SMILES.

With `CC(=O)OC/C=C(\C)CC/C=C(\C)CC/C=C(\C)CC(=O)C=C(C)C` [ELEGANOLONE ACETATE], the Activity result in test [1] and in test [4] was “Dose-dependent effect” in each case. Also, the 50% inhibitory concentration (IC50) is 33.9 µM in test [1], 19.5 µM in test [2], 6.61 µM in test [3] and 45.7 µM in test [4].

`CC(C)=CC(=O)C/C(C)=C/CC/C(C)=C/CC/C(C)=C/CO` [ELEGANOLONE]: the Activity entry in test [1] and in test [4] was “Dose-dependent effect” each time. For the same compound, the IC50 was 18.6 µM in test [1], 25.1 µM in test [2], 14.5 µM in test [3] and 45.7 µM in test [4].
